From ChEMBL document CHEMBL1201862, “PubChem BioAssay data set” (2004)
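Results reflect a 48-hour exposure of cells in 96-well plates to compound at five concentrations. At the GI50, growth is halved.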 The source made the active and inactive calls. No stated cut-off is given here; in the data, active = GI50 up to about 1.1 µM and inactive = higher.

Assays:
Test in all cases: DTP human tumour cell line panel, 48 h
[1] = test system: HCT-116
[2] = test system: SF-539
[3] = test system: EKVX
[4] = test system: SF-295
[5] = test system: OVCAR-4
[6] = test system: SK-MEL-28
[7] = test system: OVCAR-5
[8] = test system: SN12C
[9] = test system: CCRF-CEM
[10] = test system: HOP-92
[11] = test system: SNB-19
[12] = test system: UO-31
[13] = test system: DMS-114
[14] = test system: NCI-H522
[15] = test system: SNB-78
[16] = test system: SR
[17] = test system: A549
[18] = test system: XF498
[19] = test system: HCT-15
[20] = test system: OVCAR-3
[21] = test system: LOX IMVI
[22] = test system: SK-MEL-5
[23] = test system: U-251
[24] = test system: MOLT-4
[25] = test system: DLD-1
[26] = test system: K562
[27] = test system: HOP-62
[28] = test system: NCI-H23
[29] = test system: COLO 205
[30] = test system: SK-MEL-2
[31] = test system: RXF 393
[32] = test system: CAKI-1
[33] = test system: HCC 2998
[34] = test system: Malme-3M
[35] = test system: NCI-H460
[36] = test system: ACHN
[37] = test system: SW-620
[38] = test system: UACC-257
[39] = test system: UACC-62
[40] = test system: RPMI-8226
[41] = test system: HT-29
[42] = test system: OVCAR-8
[43] = test system: A498
[44] = test system: HL-60
[45] = test system: DMS-273
[46] = test system: M19-MEL
[47] = test system: TK-10
[48] = test system: NCI-H226
[49] = test system: SNB-75
[50] = test system: KM-20L2
[51] = test system: IGROV-1
[52] = test system: KM12
[53] = test system: LXFL 529
[54] = test system: M14
[55] = test system: SF-268
[56] = test system: HOP-18
[57] = test system: SK-OV-3

SMILES: Cc1ccc(C)c(C(=O)CC2OC(O)C(Cl)C2Cl)c1 (configuration not stated)
- GI50 [1]: 29.7 µM (inactive)
- GI50 [2]: 24 µM (inactive)
- GI50 [3]: > 100 µM (inactive)
- GI50 [4]: > 100 µM (inactive)
- GI50 [5]: > 100 µM (inactive)
- GI50 [6]: 39.5 µM (inactive)
- GI50 [7]: > 100 µM (inactive)
- GI50 [8]: 5.7 µM (inactive)
- GI50 [9]: 41.1 µM (inactive)
- GI50 [10]: 30.6 µM (inactive)
- GI50 [11]: > 100 µM (inactive)
- GI50 [12]: > 100 µM (inactive)
- GI50 [13]: > 100 µM (inactive)
- GI50 [14]: 15.6 µM (inactive)
- GI50 [15]: 60.1 µM (inactive)
- GI50 [16]: 44 µM (inactive)
- GI50 [17]: > 100 µM (inactive)
- GI50 [18]: > 100 µM (inactive)
- GI50 [19]: 34.8 µM
- GI50 [20]: 36.6 µM (inactive)
- GI50 [21]: 18.9 µM (inactive)
- GI50 [22]: > 100 µM (inactive)
- GI50 [23]: > 100 µM (inactive)
- GI50 [24]: 8.65 µM (inactive)
- GI50 [25]: 17.1 µM (inactive)
- GI50 [26]: 32.5 µM (inactive)
- GI50 [27]: > 100 µM (inactive)
- GI50 [28]: > 100 µM (inactive)
- GI50 [29]: > 100 µM (inactive)
- GI50 [30]: 84.5 µM (inactive)
- GI50 [31]: 26.2 µM (inactive)
- GI50 [32]: 30.4 µM (inactive)
- GI50 [33]: > 100 µM (inactive)
- GI50 [34]: 67.5 µM (inactive)
- GI50 [35]: > 100 µM (inactive)
- GI50 [36]: 42.5 µM (inactive)
- GI50 [37]: 18.7 µM (inactive)
- GI50 [38]: > 100 µM (inactive)
- GI50 [39]: 57.3 µM (inactive)
- GI50 [40]: 12.4 µM (inactive)
- GI50 [41]: > 100 µM (inactive)
- GI50 [42]: 18.3 µM (inactive)
- GI50 [43]: > 100 µM (inactive)
- GI50 [44]: 20.6 µM (inactive)
- GI50 [45]: 63.1 µM (inactive)
- GI50 [46]: 72.3 µM (inactive)
- GI50 [47]: > 100 µM (inactive)
- GI50 [48]: > 100 µM (inactive)
- GI50 [49]: 52 µM (inactive)
- GI50 [50]: > 100 µM (inactive)
- GI50 [51]: > 100 µM (inactive)
- GI50 [52]: > 100 µM (inactive)
- GI50 [53]: 17.4 µM (inactive)
- GI50 [54]: > 100 µM (inactive)
- GI50 [55]: > 100 µM (inactive)
- GI50 [56]: > 100 µM (inactive)
- GI50 [57]: > 100 µM (inactive)
